# Test results as given in patent US20040265836A1, “Methods for the identification of inhibitors of C4 Long Chain Base Hydroxylase activity in plants” (priority 2003, published 2004).
# How the values were obtained:
# [1] = test system: yeast strain PGY8 (wild type); test: Syringomycin E sensitivity growth assay, wild type yeast strain PGY8; format: cell-based, Saccharomyces cerevisiae; details: PGY8 in rich medium; 5 μl of approximately 14-fold concentrated Syringomycin E-containing fraction dried in well of 384-well plate
# Excerpt: (§1) Syringomycin E is not a commercially available antibiotic and was, therefore, purified from the bacterium Pseudomonas syringae pv. syringae according to the method of (Bidwai & Zhang et al., 83 Plant Physiol 39-43 (1987)). Briefly, stationary-phase liquid cultures of P. syringae pv. syringae were extracted with acidified acetone and fractionated over an Amberlite XAD-2 (Sigma) column using a linear gradient of 0.1% trifluoroacetic acid/0.1% trifluoroacetic acid in 2-propanol. Each fraction was assayed for ability to inhibit growth of wild type (PGY8) and sur2 (PGY29) yeast strains. For the assay, 10 ml fractions were collected and 50 μl of each fraction was applied a 96-well plate and dried in a vacuum concentrator. […] of rich medium containing mid-logarithmic PGY8 or PGY29 at a cell density of 10^5 cells/ml were applied to each well. Growth was monitored after 18 hours by determining the absorbance at 600 nm. Syringomycin E-containing fractions were identified as those that inhibited growth of PGY8 but not of PGY29.
# (§2) The ability of the amino-terminal truncated Arabidopsis LCBH to confer Syringomycin E sensitivity on the yeast sur2 mutant was determined as follows. […] 100 μl of yeast strains PGY8 and PGY29 in rich medium, or PGY31 in rich medium supplemented with galactose were added to each well and growth was monitored at 600 nm.
# [2] = test system: yeast strain PGY31 (sur2 mutant expressing the truncated form of C4-LCBH); test: Syringomycin E sensitivity growth assay, sur2 mutant expressing truncated Arabidopsis LCBH (PGY31); format: cell-based, Saccharomyces cerevisiae; details: PGY31 in rich medium supplemented with galactose; 5 μl of approximately 14-fold concentrated Syringomycin E-containing fraction dried in well of 384-well plate
# Excerpt: as §1, §2
# sur2 mutants = details: cited from earlier work
# Wild-type yeast strains = details: cited from earlier work
# [3] = test system: yeast strain PGY29 (sur2); test: Syringomycin E sensitivity growth assay, sur2 mutant strain PGY29; format: cell-based, Saccharomyces cerevisiae; details: PGY29 in rich medium; 5 μl of approximately 14-fold concentrated Syringomycin E-containing fraction dried in well of 384-well plate
# Excerpt: as §1, §2
substance,measurement,setting,value
Syringomycin E,Growth in the presence of Syringomycin E (monitored at 600 nm),[1],completely inhibited
same,Growth in the presence of Syringomycin E (monitored at 600 nm),[2],completely inhibited
same,Growth in the presence of syringomycin E,sur2 mutants,able to grow
same,Sensitivity to syringomycin E,Wild-type yeast strains,sensitive
same,Growth in the presence of Syringomycin E (monitored at 600 nm),[3],able to grow
